In patent US6399590B2, “Phosphoglycolipid and methods for its use” (Corixa Corporation, priority 1998, dated 2002):

Assays:
[1] = tested on: rabbit model of regional myocardial ischemia; experiment: Infarct size in rabbits, 30 min coronary occlusion and 3 h reperfusion; assay type: in vivo, New Zealand white rabbits
Description: Male New Zealand white rabbits weighing 2.5-3.5 kg were injected with vehicle or L34 24 h before the experiment. L34 was formulated in vehicle composed of 40% propylene glycol, 10% ethanol in water. For the experiment, animals were intramuscularly anesthetized with ketamine (35 mg/kg) and xylazine (5 mg/kg). Tracheotomy was performed and the animals intubated with a cuffed endotracheal tube (Portex, 4.0 mm internal diameter) and then mechanically ventilated with room air on a positive pressure respirator Q Industries, Mobile, Ala.). Ventilatory rate was 27-35 breaths per min, and tidal volume was approximately 10-17 ml. […] The EKG was recorded throughout the experiment via lead II of the standard elctrocardiogram. […]
At the end of each experiment, the ligature around the large marginal branch of the circumflex artery was retightened to reocclude the artery and approximately 4 ml of 10% Evans blue dye was injected into the jugular vein until the eyes turned blue. […] The area at risk was determined by negative staining and calculated as a percentage of the portion of left ventricle containing the risk area (AAR/LV %) and infarct size as a percentage of area at risk (IS/AAR %). […] Regions of infarcted tissue and the risk zone were determined by computer morphometry using Bioquant imaging software and the percentage of infarcted area and risk area calculated.

[2] = tested on: pig model of regional myocardial ischemia/reperfusion; experiment: Infarct size in pigs, 40 min LAD occlusion and 3 h reperfusion; assay type: in vivo; details: i.v. 10 min prior to coronary artery occlusion (35 μg/kg); FIG. 4
Description: To assess the efficacy of L34 to reduce infarct size, nine pigs were assigned in a non-blinded fashion to one of four groups: (1) control (n=2), (2) vehicle control (n4), (3) L34 (35 μg/kg) (n=2), (4) L34 (70 μg/kg) (n=1). L34 was formulated in 10% ethanol, 40% propylene glycol in Water for Injection. Blinded studies were additionally conducted with eight pigs randomly assigned to one of two treatment groups: (1) A (n=4), (2) B (n=4). Group A and B were either vehicle control or L34. Vehicle or drug injection was diluted one to one with 5% dextrose in Water for Injection prior to administration.
Male pigs (15-20 kg) were anesthetized with ketamine (25 mg/kg, i.m.) and sodium pentobarbital (10 mg/kg, i.v.), intubated and mechanically ventilated with room air. Pigs were placed on a 37° C. circulating water heating pad. The left carotid artery of each animal was cannulated with 5Fr Millar catheter for measuring left ventricular pressure and the right carotid artery was cannulated with 24G I.V. catheter for sampling blood. A median sternotomy was performed and the pericardium was incised. […]
Following 40 min of occlusion, the snare was released and the myocardium was reperfused for 3 h. The hemodynamic parameters at certain time points were recorded and blood samples were collected. […]

CCCCCCCCCCCCCCCCCC(=O)O[C@H](CCCCCCCCCCC)CC(=O)N[C@H]1[C@H](OC[C@H]2OC(O)[C@H](NC(=O)C[C@@H](CCCCCCCCCCC)OC(=O)CCCCCCCCCCCCCCC)[C@@H](O)[C@@H]2O)O[C@H](CO)[C@@H](OP(=O)(O)O)[C@@H]1OC(=O)C[C@@H](CCCCCCCCCCC)OC(=O)CCCCCCCCCCCCC (stereo partly drawn) [L34, 2-Deoxy-6-O-[2-deoxy-4-O-phosphono-3-O-[(R)-3-tetradecanoyloxytetradecanoyl]-2-[(R)-3-octadecanoyloxytetradecanoylamino]-β-D-glucopyranosyl]-2-[(R)-3-hexadecanoyloxytetradecanoylamino]-D-glucopyranose]
reduction in infarct size (percentage of area at risk) compared to controls ([1]; 35 μg/kg given 24 h before ischemia, FIG. 1): approximately 70% | reduction in infarct size, dose response ([1]; doses of 10 to 35 μg/kg given 24 h before ischemia, FIG. 2): > 50% | reduction in infarct size expressed as % AN/AR in g compared to controls [2]: 46%
